Tests used:
HCT-116 cell lines = test: Cellular NAD measurement assay (NAD/NADH-Glo Assay); format: cell-based; details: Homo sapiens; intracellular NAD+/NADH levels, HCT-116 cells, 24 hours treatment, 0.1 nM to 100 nM
Experimental: With regard to HCT-116 cell lines, the decrease in intracellular NAD+ and NADH levels due to the inhibition of NAMPT enzyme activity by compounds was evaluated using the product of NAD/NADH-Glo™ Assay (Promega, G9072) from Promega. The cells were incubated using DMEM (Gibco, 11995-065) medium containing 10% FBS. The HCT-116 cells were incubated for 24 hours after being distributed at a density of 2,500 cells per well in a 96-well plate, and were treated with a drug using a serum-free DMEM. First, a compound was dissolved in 100% dimethyl sulfoxide (DMSO), and then diluted in the culture medium so that the final concentration of DMSO might reach 0.5%, and treated with the drug. The final concentration range of the compounds was 0.1 nM to 100 nM. After that, they were further incubated for 24 hours at 37°C and CO2 5%. To conduct the NAD/NADH-Glo™ Assay, the culture medium of drug-treated cells was removed, and 50 µL of DPBS was treated per well, and left at room temperature for five minutes. The required amount of NAD/NADH-Glo™ Detection Reagent (Reconstituted Luciferin Detection Reagent 1 mL, Reductase 5 µL, Reductase Substrate 5 µL, NAD Cycling Enzyme 5 µL, NAD Cycling Substrate 25 µL) was prepared according to the manufacturer's manual and treated in an amount of 50 µL per well. After incubating for two minutes at 400 rpm in a plate shaker for cell lysis, the cells were incubated for 30 minutes at room temperature, and luminescence was measured. NAD+/NADH levels were calculated by subtracting the measurement value of the blank well without cells from the measurement value of all wells and taking the 0.5% DMSO-treated control as 100%.

[1] = system: HCT116 colorectal cancer cell lines; test: Tumor cytotoxicity assay (MTT); format: cell-based; details: Homo sapiens, HCT-116, HCT116 cells, 72 hours treatment, 0.1 nM to 1000 nM
Experimental: The anticancer efficacy of the compound of the present invention was evaluated using the MTT analysis method in HCT116 colorectal cancer cell lines. The cells were incubated using DMEM medium containing 10% FBS. The cells were distributed in a 96-well plate at a density of 2,500 cells per well, the HCT116 cells were incubated for 24 hours, and then treated with a drug using a serum free DMEM. First, a compound was prepared in 100% dimethyl sulfoxide (DMSO) at a concentration of 0.02 µM to 200 µM, diluted in the culture medium so that the final concentration of DMSO might reach 0.5%, and treated with the drug so that the final concentration of the compound might range from 0.1 nM to 1000 nM. After that, they were further incubated for 72 hours at 37°C and CO2 5% and treated with MTT (Sigma-Aldrich, M2128) to confirm cytotoxicity. Formazan produced from reduction by enzymes in the mitochondria of living cells was measured using Spark® Multimode Microplate Reader TECAN equipment. A cell viability (%) was relatively determined by subtracting a reference 650 nm optical density (O.D.) from 570 nm O.D., in which the 0.5% DMSO-treated control was set as a standard of 100%. […]

[2] = target: T1, Recombinant NAMPT protein (Homo sapiens, UniProt P43490); test: NAMPT enzyme inhibition assay (BPS bioscience NAMPT Inhibitor Screening Assay Kit, fluorescence); format: biochemical; details: 30 min pre-incubation, 2 h at 30°C, compound 1000 nM to 3 nM, n=2
T1 construct: purchased BPS bioscience # 7176-1
T1 sequence (P43490 whole entry): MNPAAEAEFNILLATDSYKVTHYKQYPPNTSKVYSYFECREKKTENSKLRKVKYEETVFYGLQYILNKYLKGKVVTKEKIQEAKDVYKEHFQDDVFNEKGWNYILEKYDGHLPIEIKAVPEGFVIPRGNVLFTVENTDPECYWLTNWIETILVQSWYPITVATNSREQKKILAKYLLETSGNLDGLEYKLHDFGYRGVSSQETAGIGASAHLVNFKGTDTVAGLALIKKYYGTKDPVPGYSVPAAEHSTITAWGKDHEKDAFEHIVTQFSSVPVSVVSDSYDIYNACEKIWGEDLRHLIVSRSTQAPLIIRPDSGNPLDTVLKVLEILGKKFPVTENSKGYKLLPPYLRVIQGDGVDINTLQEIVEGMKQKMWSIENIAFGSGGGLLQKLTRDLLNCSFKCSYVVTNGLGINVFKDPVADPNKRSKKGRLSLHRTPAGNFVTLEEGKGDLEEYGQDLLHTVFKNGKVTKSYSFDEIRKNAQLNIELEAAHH
Experimental: The NAMPT enzyme activity inhibition ability of the compound of the present invention was evaluated using the NAMPT Inhibitor Screening Assay Kit (# 7176-1) from BPS bioscience. Recombinant NAMPT protein was added to each well of a black 96-well plate, and dilution buffer was added to a blank well instead of NAMPT protein. A 5 x concentrated compound solution was added and pre-incubated at room temperature (approximately 22°C) for 30 minutes before the start of the reaction so that the compound and protein might bind before the enzyme reaction. At this time, the concentration of NAMPT protein was adjusted and used according to the enzyme activity of each protein lot within the final concentration range of 4-10 ng/µl, and the test compound was serially diluted at a ratio of 1:3 from 1000 nM to 3 nM, and experiments were conducted with n=2 for about seven concentrations. A 2 x concentrated test buffer containing ATP (final concentration of 20 µM), nicotinamide (final concentration of 20 µM), phosphoribosyl pyrophosphate (PRPP, final concentration of 40 µM), and ethanol (final concentration of 1.5%) was added, and the plate was incubated at 30°C for two hours, after which the fluorescence of a resulting reaction product was measured with excitation of 340 nm and emission of 460 nm. The NAMPT enzyme activity (%) was calculated by subtracting the measurement value of the blank well without NAMPT protein from the measurement value of all wells, and then taking the measurement value of the control well without the compound as 100%.

Q: Which IC50 (HCT-116 cell lines) does the source give for `Cn1ccc(CS(=O)(=O)c2ccc(C(=O)NCCCc3cn[nH]c3)cc2C#Cc2ccc(F)cc2)n1` [compound 1, N-(3-(1H-pyrazol-4-yl)propyl)-3-((4-fluorophenyl)ethynyl)-4-(((1-methyl-1H-pyrazol-3-yl)methyl)sulfonyl)benzamide] here?
A: ≤ 10 nM

Q: And the CC50 [1]?
A: ≤ 30 nM

Q: And the IC50 [2]?
A: < 500 nM

Q: `Cn1ccc(CS(=O)(=O)c2ccc(C(=O)NCc3ccn4ccnc4c3)cc2C#Cc2ccc(F)cc2)n1` [compound 2, 3-((4-fluorophenyl)ethynyl)-N-(imidazo[1,2-a]pyridin-7-ylmethyl)-4-(((1-methyl-1H-pyrazol-3-yl)methyl)sulfonyl)benzamide] was tested. Which IC50 (HCT-116 cell lines) did it give?
A: ≤ 10 nM

Q: And the CC50 [1]?
A: ≤ 30 nM

Q: What about the IC50 [2] of the same compound?
A: < 500 nM

Q: For `O=C(NCCCc1cn[nH]c1)c1ccc(S(=O)(=O)Cc2ccn(-c3ccncc3)n2)c(C#Cc2ccc(F)cc2)c1` [compound 10, N-(3-(1H-pyrazol-4-yl)propyl)-3-((4-fluorophenyl)ethynyl)-4-(((1-(pyridin-4-yl)-1H-pyrazol-3-yl)methyl)sulfonyl)benzamide], which IC50 (HCT-116 cell lines) is on record?
A: ≤ 10 nM

Q: And the CC50 [1]?
A: ≤ 30 nM

Q: What about the IC50 [2] of the same compound?
A: < 500 nM

Q: What does the source list for `Nc1ccc(CS(=O)(=O)c2ccc(C(=O)NCc3ccn4ccnc4c3)cc2C#Cc2ccc(F)cc2)cc1` [compound 148, 4-((4-aminobenzyl)sulfonyl)-3-((4-fluorophenyl)ethynyl)-N-(imidazo[1,2-a]pyridin-7-ylmethyl)benzamide]?
A: CC50 [1]: 100 to 1000 nM; IC50 [2]: < 500 nM

Q: With `Cn1ccc(CS(=O)(=O)c2ccc(C(=O)NCc3ccn4ccnc4c3)cc2C#Cc2ccc(N)cc2)n1` [compound 228, 3-((4-aminophenyl)ethynyl)-N-(imidazo[1,2-a]pyridin-7-ylmethyl)-4-(((1-methyl-1H-pyrazol-3-yl)methyl)sulfonyl)benzamide] as the compound, how does the IC50 (HCT-116 cell lines) read?
A: ≤ 10 nM

Q: And the CC50 [1]?
A: ≤ 30 nM

Q: And the IC50 [2]?
A: < 500 nM

Q: Which results are given for `Cn1ccc(CS(=O)(=O)c2ccc(C(=O)NCc3ccn4ccnc4c3)cc2C#Cc2cccc(N)c2)n1` [compound 229, 3-((3-aminophenyl)ethynyl)-N-(imidazo[1,2-a]pyridin-7-ylmethyl)-4-(((1-methyl-1H-pyrazol-3-yl)methyl)sulfonyl)benzamide]?
A: IC50 (HCT-116 cell lines): ≤ 10 nM; CC50 [1]: ≤ 30 nM; IC50 [2]: < 500 nM

Q: For `Cn1ccc(CS(=O)(=O)c2ccc(C(=O)NCc3ccn4ccnc4c3)cc2C#Cc2cccc(C(=O)N3CCNCC3)c2)n1` [compound 230, N-(imidazo[1,2-a]pyridin-7-ylmethyl)-4-(((1-methyl-1H-pyrazol-3-yl)methyl)sulfonyl)-3-((3-(piperazine-1-carbonyl)phenyl)ethynyl)benzamide], which IC50 (HCT-116 cell lines) is on record?
A: 10 to 1000 nM

Q: What about the CC50 [1] of the same compound?
A: 100 to 1000 nM

Q: What about the IC50 [2] of the same compound?
A: < 500 nM

Q: For `Cn1ccc(CS(=O)(=O)c2ccc(C(=O)NCc3ccn4ccnc4c3)cc2C#Cc2cccc(CN)c2)n1` [compound 232, 3-((3-(aminomethyl)phenyl)ethynyl)-N-(imidazo[1,2-a]pyridin-7-ylmethyl)-4-(((1-methyl-1H-pyrazol-3-yl)methyl)sulfonyl)benzamide], which CC50 [1] is on record?
A: ≤ 30 nM

Q: And the IC50 [2]?
A: < 500 nM

Q: How did the CC50 [1] turn out when `O=C(NCc1ccn2ccnc2c1)c1ccc(S(=O)(=O)Cc2cc[nH]n2)c(C#Cc2ccc(F)cc2)c1` [compound 234, 4-(((1H-pyrazol-3-yl)methyl)sulfonyl)-3-((4-fluorophenyl)ethynyl)-N-(imidazo[1,2-a]pyridin-7-ylmethyl)benzamide] was run?
A: ≤ 30 nM

Q: What about the IC50 [2] of the same compound?
A: < 500 nM

Q: What does the source list for `Cn1ccc(CS(=O)(=O)c2ccc(C(=O)NCc3cnc4nccn4c3)cc2C#Cc2ccc(F)cc2)n1` [compound 238, 3-((4-fluorophenyl)ethynyl)-N-(imidazo[1,2-a]pyrimidin-6-ylmethyl)-4-(((1-methyl-1H-pyrazol-3-yl)methyl)sulfonyl)benzamide]?
A: CC50 [1]: 100 to 1000 nM; IC50 [2]: < 500 nM

Q: For `Cn1ccc(CS(=O)(=O)c2ccc(C(=O)NCc3ccn4ccnc4c3)cc2C#Cc2ccc(N)c(F)c2)n1` [compound 241, 3-((4-amino-3-fluorophenyl)ethynyl)-N-(imidazo[1,2-a]pyridin-7-ylmethyl)-4-(((1-methyl-1H-pyrazol-3-yl)methyl)sulfonyl)benzamide], which CC50 [1] is on record?
A: ≤ 30 nM

Q: What about the IC50 [2] of the same compound?
A: < 500 nM
